# Entries after “also recorded” stand apart in the source; their conditions may differ.
# What was measured:
# [1] = Pharmacokinetics of PEG400 solution versus emulsion injection in rats (Test Example 5); type: in vivo; settings: tail vein, equimolar dose
# Protocol: The PEG solution (3250 μL) of the test compound was pipetted into a 10 mL EP tube, 1750 μL of normal saline was added into the tube with the dispensing gun, and the mixture was vortexed to be uniformly mixed to obtain a dosing solution with a concentration of 1.3 mg/mL and a volume of 5 mL.
# Method for preparing the test solution of N9(S) (emulsion injection): an emulsion injection (215 μL) containing N9(S) compound (the content of which was 60 mg/mL) was added into a 15 mL EP tube and 10 mL of normal saline was added into the tube with a dispensing gun to obtain a dosing solution with a concentration of 1.3 mg/mL and […].
# [2] = Metabolism of the compound in human plasma in vitro; type: in vitro ADME
# Protocol: In the present application, the conversion characteristics of Compound N9 and its isomers were evaluated by establishing an in vitro human plasma metabolism model. The test scheme was as follows: • (1) stock solutions (40 mM) of Compounds N9, N9(S) and N9(R) in pure acetonitrile were formulated respectively, and a stock solution (40 mM) of ibuprofen in pure acetonitrile was formulated; • (2) 25 μL stock solution of ibuprofen was mixed with 1 mL of human plasma and vortexed for 30 s. […]
smiles,measurement,setting,value
CCOC(=O)OC(CC)OC(=O)[C@@H](C)c1ccc(CC(C)C)cc1 (stereo partly drawn) [N9(S)],drug-time curve of dexibuprofen in vivo versus arginine solution of dexibuprofen (in words),[1]; PEG400 solubilized solution,basically coincide
same,drug-time curve of dexibuprofen in vivo versus arginine solution of dexibuprofen (in words),[1]; emulsion injection,basically coincide
same,Remaining amount of a prodrug compound (%),"[2]; 37° C., 120 min",45.0 ± 2.1%
same,hydrolysis / metabolic rate in plasma (in words),[2]; comparison between isomers,faster hydrolysis rate in plasma than N9(R); also recorded: faster metabolic rate than the racemate N9
